biological target: Bcl-2 protein (Homo sapiens (Human), UniProt P10415); experiment: Bcl-2 binding TR-FRET (Time-Resolved Fluorescence-Resonance-Energy-Transfer) assay; settings: inhibition constant for binding to Bcl-2 protein
Description: The smaller the Ki value, the greater is the binding affinity.

Sequence of Bcl-2 protein (P10415 whole entry): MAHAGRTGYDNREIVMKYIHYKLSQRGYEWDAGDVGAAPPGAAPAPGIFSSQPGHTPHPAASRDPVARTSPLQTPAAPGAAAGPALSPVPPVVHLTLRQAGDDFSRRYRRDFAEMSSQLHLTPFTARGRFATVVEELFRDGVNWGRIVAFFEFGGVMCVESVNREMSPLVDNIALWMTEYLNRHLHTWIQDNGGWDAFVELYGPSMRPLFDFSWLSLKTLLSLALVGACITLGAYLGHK

| SMILES | Ki [pM] |
| --- | --- |
| CC1(C)CCC(CN2CCN(c3ccc(C(=O)NS(=O)(=O)c4ccc(NC5CN(C6CCOCC6)C5)c([N+](=O)[O-])c4)c(Oc4cnc5[nH]ccc5c4)c3)CC2)=C(c2ccc(Cl)cc2)C1 [Compound 116, 4-(4-{[2-(4-chlorophenyl)-4,4-dimethylcyclohex-1-en-1-yl]methyl}piperazin-1-yl)-N-({3-nitro-4-[(1-tetrahydro-2H-pyran-4-ylazetidin-3-yl)amino]phenyl}sulfonyl)-2-(1H-pyrrolo[2,3-b]pyridin-5-yloxy)benzamide] | < 10 |
| CC1(C)CCC(CN2CCN(c3ccc(C(=O)NS(=O)(=O)c4ccc(NC5CN(C6CCOC6)C5)c([N+](=O)[O-])c4)c(Oc4cnc5[nH]ccc5c4)c3)CC2)=C(c2ccc(Cl)cc2)C1 (stereo not shown) [Compound 117, 4-(4-{[2-(4-chlorophenyl)-4,4-dimethylcyclohex-1-en-1-yl]methyl}piperazin-1-yl)-N-({3-nitro-4-[(1-tetrahydrofuran-3-ylazetidin-3-yl)amino]phenyl}sulfonyl)-2-(1H-pyrrolo[2,3-b]pyridin-5-yloxy)benzamide] | < 10 |
| CC1(C)CCC(CN2CCN(c3ccc(C(=O)NS(=O)(=O)c4ccc(NC[C@H]5CCN(C6CCOCC6)C5)c([N+](=O)[O-])c4)c(Oc4cnc5[nH]ccc5c4)c3)CC2)=C(c2ccc(Cl)cc2)C1 [Compound 118, 4-(4-{[2-(4-chlorophenyl)-4,4-dimethylcyclohex-1-en-1-yl]methyl}piperazin-1-yl)-N-{[3-nitro-4-({[(3R)-1-tetrahydro-2H-pyran-4-ylpyrrolidin-3-yl]methyl}amino)phenyl]sulfonyl}-2-(1H-pyrrolo[2,3-b]pyridin-5-yloxy)benzamide] | < 10 |
| CC1(C)CCC(c2ccc(Cl)cc2)=C(CN2CCN(c3ccc(C(=O)NS(=O)(=O)c4ccc(OCC5(F)CCOCC5)c([N+](=O)[O-])c4)c(Oc4cnc5[nH]ccc5c4)c3)CC2)C1 [Compound 119, 4-(4-{[2-(4-chlorophenyl)-5,5-dimethylcyclohex-1-en-1-yl]methyl}piperazin-1-yl)-N-({4-[(4-fluorotetrahydro-2H-pyran-4-yl)methoxy]-3-nitrophenyl}sulfonyl)-2-(1H-pyrrolo[2,3-b]pyridin-5-yloxy)benzamide] | < 10 |
| CC1(C)CCC(CN2CCN(c3ccc(C(=O)NS(=O)(=O)c4ccc(NC[C@H]5CC[C@H](O)CC5)c([N+](=O)[O-])c4)c(Oc4cnc5[nH]ccc5c4)c3)CC2)=C(c2ccc(Cl)cc2)C1 [Compound 120] | < 10 |
| CC1(C)CCC(CN2CCN(c3ccc(C(=O)NS(=O)(=O)c4ccc(N[C@H]5CC[C@@H](NC6CC6)CC5)c([N+](=O)[O-])c4)c(Oc4cnc5[nH]ccc5c4)c3)CC2)=C(c2ccc(Cl)cc2)C1 [Compound 122, cis-4-(4-{[2-(4-chlorophenyl)-4,4-dimethylcyclohex-1-en-1-yl]methyl}piperazin-1-yl)-N-[(4-{[4-(cyclopropylamino)cyclohexyll]amino}-3-nitrophenyl)sulfonyll]-2-(1H-pyrrolo[2,3-b]pyridin-5-yloxy)benzamide] | < 10 |
| CC1(C)CCC(CN2CCN(c3ccc(C(=O)NS(=O)(=O)c4cnc(O[C@H]5CC[C@H](N6CCOCC6)CC5)c(Br)c4)c(Oc4cnc5[nH]ccc5c4)c3)CC2)=C(c2ccc(Cl)cc2)C1 [Compound 124] | < 10 |
| CC1(C)CCC(CN2CCN(c3ccc(C(=O)NS(=O)(=O)c4ccc(OCC5(F)CCN(C(=O)OC(C)(C)C)CC5)c([N+](=O)[O-])c4)c(Oc4cnc5[nH]ccc5c4)c3)CC2)=C(c2ccc(Cl)cc2)C1 [Compound 126, tert-butyl 4-{[4-({[4-(4-{[2-(4-chlorophenyl)-4,4-dimethylcyclohex-1-en-1-yl]methyl}piperazin-1-yl)-2-(1H-pyrrolo[2,3-b]pyridin-5-yloxy)benzoyl]amino}sulfonyl)-2-nitrophenoxy]methyl}-4-fluoropiperidine-1-carboxylate] | < 10 |
| CC1(C)CCC(CN2CCN(c3ccc(C(=O)NS(=O)(=O)c4ccc(OCC5(F)CCNCC5)c([N+](=O)[O-])c4)c(Oc4cnc5[nH]ccc5c4)c3)CC2)=C(c2ccc(Cl)cc2)C1 [Compound 127, 4-(4-{[2-(4-chlorophenyl)-4,4-dimethylcyclohex-1-en-1-yl]methyl}piperazin-1-yl)-N-({4-[(4-fluoropiperidin-4-yl)methoxy]-3-nitrophenyl}sulfonyl)-2-(1H-pyrrolo[2,3-b]pyridin-5-yloxy)benzamide] | < 10 |
| CC1(C)CCC(CN2CCN(c3ccc(C(=O)NS(=O)(=O)c4ccc(N[C@@H]5CCN(C6CCOCC6)C5)c([N+](=O)[O-])c4)c(Oc4cnc5[nH]ccc5c4)c3)CC2)=C(c2ccc(Cl)cc2)C1 [Compound 130, 4-(4-{[2-(4-chlorophenyl)-4,4-dimethylcyclohex-1-en-1-yl]methyl}piperazin-1-yl)-N-[(3-nitro-4-{[(3R)-1-tetrahydro-2H-pyran-4-ylpyrrolidin-3-yl]amino}phenyl)sulfonyl]-2-(1H-pyrrolo[2,3-b]pyridin-5-yloxy)benzamide] | < 10 |
| CC1(C)CCC(CN2CCN(c3ccc(C(=O)NS(=O)(=O)c4ccc(N[C@@H]5CCN(C6CCOC(C)(C)C6)C5)c([N+](=O)[O-])c4)c(Oc4cnc5[nH]ccc5c4)c3)CC2)=C(c2ccc(Cl)cc2)C1 (stereo partly drawn) [Compound 131, 4-(4-{[2-(4-chlorophenyl)-4,4-dimethylcyclohex-1-en-1-yl]methyl}piperazin-1-yl)-N-[(4-{[(3R)-1-(2,2-dimethyltetrahydro-2H-pyran-4-yl)pyrrolidin-3-yl]amino}-3-nitrophenyl)sulfonyl]-2-(1H-pyrrolo[2,3-b]pyridin-5-yloxy)benzamide] | < 10 |
| CC1(C)CCC(CN2CCN(c3ccc(C(=O)NS(=O)(=O)c4ccc(N[C@H]5CCN(C6CCOCC6)C5)c([N+](=O)[O-])c4)c(Oc4cnc5[nH]ccc5c4)c3)CC2)=C(c2ccc(Cl)cc2)C1 [Compound 132, 4-(4-{[2-(4-chlorophenyl)-4,4-dimethylcyclohex-1-en-1-yl]methyl}piperazin-1-yl)-N-[(3-nitro-4-{[(3S)-1-tetrahydro-2H-pyran-4-ylpyrrolidin-3-yl]amino}phenyl)sulfonyl]-2-(1H-pyrrolo[2,3-b]pyridin-5-yloxy)benzamide] | < 10 |
| CC1(C)CCC(CN2CCN(c3ccc(C(=O)NS(=O)(=O)c4ccc(N[C@H]5CCN(C6CCOC(C)(C)C6)C5)c([N+](=O)[O-])c4)c(Oc4cnc5[nH]ccc5c4)c3)CC2)=C(c2ccc(Cl)cc2)C1 (stereo partly drawn) [Compound 133, 4-(4-{[2-(4-chlorophenyl)-4,4-dimethylcyclohex-1-en-1-yl]methyl}piperazin-1-yl)-N-[(4-{[(3S)-1-(2,2-dimethyltetrahydro-2H-pyran-4-yl)pyrrolidin-3-yl]amino}-3-nitrophenyl)sulfonyl]-2-(1H-pyrrolo[2,3-b]pyridin-5-yloxy)benzamide] | < 10 |
| CN1CCOC(CNc2ccc(S(=O)(=O)NC(=O)c3ccc(N4CCN(CC5=C(c6ccc(Cl)cc6)CC(C)(C)CC5)CC4)cc3Oc3cnc4[nH]ccc4c3)cc2[N+](=O)[O-])C1 (stereo not shown) [Compound 134, 4-(4-{[2-(4-chlorophenyl)-4,4-dimethylcyclohex-1-en-1-yl]methyl}piperazin-1-yl)-N-[(4-{[(4-methylmorpholin-2-yl)methyl]amino}-3-nitrophenyl)sulfonyl]-2-(1H-pyrrolo[2,3-b]pyridin-5-yloxy)benzamide] | < 10 |
| COCCN1CCOC(CNc2ccc(S(=O)(=O)NC(=O)c3ccc(N4CCN(CC5=C(c6ccc(Cl)cc6)CC(C)(C)CC5)CC4)cc3Oc3cnc4[nH]ccc4c3)cc2[N+](=O)[O-])C1 (stereo not shown) [Compound 135, 4-(4-{[2-(4-chlorophenyl)-4,4-dimethylcyclohex-1-en-1-yl]methyl}piperazin-1-yl)-N-{[4-({[4-(2-methoxyethyl)morpholin-2-yl]methyl}amino)-3-nitrophenyl]sulfonyl}-2-(1H-pyrrolo[2,3-b]pyridin-5-yloxy)benzamide] | < 10 |
| CC(=O)N1CCOC(CNc2ccc(S(=O)(=O)NC(=O)c3ccc(N4CCN(CC5=C(c6ccc(Cl)cc6)CC(C)(C)CC5)CC4)cc3Oc3cnc4[nH]ccc4c3)cc2[N+](=O)[O-])C1 (stereo not shown) [Compound 136, N-[(4-{[(4-acetylmorpholin-2-yl)methyl]amino}-3-nitrophenyl)sulfonyl]-4-(4-{[2-(4-chlorophenyl)-4,4-dimethylcyclohex-1-en-1-yl]methyl}piperazin-1-yl)-2-(1H-pyrrolo[2,3-b]pyridin-5-yloxy)benzamide] | < 10 |
| CC1(C)CCC(CN2CCN(c3ccc(C(=O)NS(=O)(=O)c4ccc(NCC5(F)CCOCC5)c([N+](=O)[O-])c4)c(Oc4cnc5[nH]ccc5c4)c3)CC2)=C(c2ccc(Cl)cc2)C1 [Compound 138, 4-(4-{[2-(4-chlorophenyl)-4,4-dimethylcyclohex-1-en-1-yl]methyl}piperazin-1-yl)-N-[(4-{[(4-fluorotetrahydro-2H-pyran-4-yl)methyl]amino}-3-nitrophenyl)sulfonyl]-2-(1H-pyrrolo[2,3-b]pyridin-5-yloxy)benzamide] | < 10 |
| CC1(C)CCC(CN2CCN(c3ccc(C(=O)NS(=O)(=O)c4ccc(NC5CCN(C6COC6)CC5)c([N+](=O)[O-])c4)c(Oc4cnc5[nH]ccc5c4)c3)CC2)=C(c2ccc(Cl)cc2)C1 [Compound 139, 4-(4-{[2-(4-chlorophenyl)-4,4-dimethylcyclohex-1-en-1-yl]methyl}piperazin-1-yl)-N-({3-nitro-4-[(1-oxetan-3-ylpiperidin-4-yl)amino]phenyl}sulfonyl)-2-(1H-pyrrolo[2,3-b]pyridin-5-yloxy)benzamide] | < 10 |
| CC1(C)CCC(CN2CCN(c3ccc(C(=O)NS(=O)(=O)c4ccc(NC5CCN(C6CCC6)CC5)c([N+](=O)[O-])c4)c(Oc4cnc5[nH]ccc5c4)c3)CC2)=C(c2ccc(Cl)cc2)C1 [Compound 140, 4-(4-{[2-(4-chlorophenyl)-4,4-dimethylcyclohex-1-en-1-yl]methyl}piperazin-1-yl)-N-({4-[(1-cyclobutylpiperidin-4-yl)amino]-3-nitrophenyl}sulfonyl)-2-(1H-pyrrolo[2,3-b]pyridin-5-yloxy)benzamide] | < 10 |

Reference: patent US10213433B2 (AbbVie Inc., priority 2010, dated 2019)
